Results on 18 compounds are retold here after US12139477B2, “Compounds, salts thereof and methods for treatment of diseases” (ACADIA PHARMACEUTICALS INC., priority 2017, dated 2024).

Counter-ions that a name gives are not always drawn.

For data set [1], the target named is hERG potassium channel (Homo sapiens, UniProt Q12809). Briefly: in vitro. The conditions noted are these: human, pH 7.4. How it is done: Each cell acted as its own control.
Temperature was measured using a thermistor probe in the recording chamber.

Data set [2] has as its target T1, hERG channel (Homo sapiens, UniProt Q12809).
T1 construct: host or cells: CHO cells, stably transfected
The data set can be described thus: hERG assay, whole cell recordings in CHO cells (AVIVA). In kind it is cell-based. The conditions noted are these: CHO cells stably expressing hERG, pH 7.4. Summed up:
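Whole-cell voltage clamp of CHO cells stably expressing hERG, held at −80 mV; steps to +20 mV for 5 s, then −50 mV for 5 s, with tail current measured against a −50 mV baseline, every 12 s. Compounds applied in 4 additions until steady state (max 12 min), vs 0.1% DMSO vehicle baseline.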

Data set [3] concerns the target 5HT2A (Homo sapiens, UniProt P28223). The data set can be described thus: Beta-arrestin recruitment assay (Tango technology, antagonist mode). Further details: engineered protease cleavage site followed by tethered transcription factor (C). The format is cell-based. The settings on record: read-out: 5HT2A (pIC50) Beta-arrestin (converted). The text has this: Beta-Arrestin Recruitment Assay:
Detecting GPCR Signaling Using the Tango Technology
GPCR signaling through beta-arrestin was detected by the Tango Technology at Thermofisher. This technology is based upon the interaction of intracellular beta-arrestin proteins and the target receptor. Upon ligand binding to the target receptor, the protease tagged arrestin is stimulated and recruited to the engineered protease site on the C-terminus of the GPCR, which triggers release of the tethered transcription factor. The free transcription factor then enters the nucleus and stimulates the beta-lactamase (bla) activity.
Test compounds are received at 1000× (or greater) of the desired starting concentration in 100% DMSO. The 1000× test compounds are serially diluted (10 point […] increments) in 100% DMSO.
Antagonist Assay Protocol:
An Agonist assay screen (see above) is run to obtain the EC80 concentration of the known activator to add in step 3.
1. 32 μL of cells diluted in Assay Media to appropriate cell density are added to the assay plate. If needed, cells are incubated at 37° C./5% CO2 for 6 or 16-24 hours (depending upon cell line specifics) before compound is added.
2. 40 nL of 1000× compound or known antagonist titration plus 4 μL of Assay Media is added to the cells in the assay plate and incubated for 30 minutes at 37° C./5% CO2 in a humidified incubator.
3. 4 μL of the 10×EC80 concentration of agonist, as determined in an Agonist assay, is added to all wells containing test compound and known inhibitor to bring the final assay volume to 40 μL.
4. 4 μL of Assay Media is added to remaining control wells to bring the volume up to 40 μL.
5. The assay plate is incubated for 5 or 16 hours (depending upon cell line specifics) at 37° C./5% CO2 in a humidified incubator.
6. 8 μL of the Substrate Loading Solution is added to the assay plate.
7. The assay plate is incubated for 2 hours at room temperature, in the dark.
8. The assay plate is read on a fluorescence plate reader (Tecan Safire2) and the data is analyzed.
SelectScreen Cell-Based GPCR Profiling Service uses XLfit from IDBS. The dose response curve is curve fit to model number 205 (sigmoidal dose-response model). Custom logic was built in-house for the data analysis tool to address the different compound characteristics that can be observed with functional assays. Using this logic the relative EC50/IC50 value for each given compound is provided.
(In general: Activated receptors often draw arrestin, which recruitment assays turn into a signal.)

For data set [4], the target named is hCav1.2/β2/α2δ channels (Homo sapiens, UniProt Q13936). The data set can be described thus: CaV1.2 manual patch clamp, CHO cells (CR-CLE). The settings on record: 0.1 μM, positive control, previous results, read-out: inhibition of hCav1.2 current. In kind it is cell-based. The text has this:
Stocks were maintained in cryogenic storage. […] Each culture dish was identified by a notation of channel name, passage number, and date.
Rationale for Selection of Ion Channel and Expression Systems: Reduction of ICa,L is associated with action potential shortening in atrial fibrillation (Van Wagoner, et al., Circ Res 85:428-436 (1999)) while augmentation of ICa,L current may produce action potential prolongation (Ahmmed, et al., Circ Res 86:558-570 (2000)) and early after depolarizations (January, et al., Circ Res 62:563-571 (1988)). ICa.L is produced by the combination of calcium channel subunits encoded by CACNA1C (α1-subunit), CACNB2 (β2-subunit) and CACNA2D1 (α2δ-subunit) cDNAs.
• Organism: Cricetulus griseus • Tissue: Ovary; transfected with human CACNA1C • (α1-subunit), CACNB2 (β2-subunit), and • CACNA2D1 (α2δ-subunit) cDNAs • Morphology: Epithelial • Age/Stage: Adult • Source Strain: ATCC, Manassas, VA • Source Substrain: CR-CLE
CHO Cell Culture Procedures: CHO cells were stably co-transfected with human CACNA1C (α1-subunit), CACNB2 (β2-subunit), and CACNA2D1 (α2δ-subunit) cDNAs. Stable transfectants were selected by coexpression of the cDNAs with antibiotic resistance genes for blasticidin, hygromycin, G418, and zeocin. Selection pressure was maintained by including these antibiotics in the culture medium. Cells were cultured in Ham's F12 Medium supplemented with 10% fetal bovine serum, penicillin-streptomycin (100 units/mL), blasticidin (10 μg/mL), zeocin (400 μg/mL), G418 (250 μg/mL) and hygromycin (250 μg/mL). To avoid Ca^2+-induced toxicity, verapamil (3 μmol/L) was added to the cultured cells.
hCav1.2/β2/α2δ-CHO is a tetracycline-inducible cell line. To induce expression, tetracycline at a final concentration of 1 μg/mL was added to media lacking the selection antibiotics. Currents were recorded greater than 16 hours post-induction.
Treatment Groups: All experiments were performed at room temperature. Each cell acted as its own control.
Each concentration was tested in at least three cells (n≥3).
Positive Control Group: The positive control article nifedipine (Sigma-Aldrich) was tested in two cells (n=2) at 0.1 μM. Previous results have shown that nifedipine at 0.1 μM inhibits hCav1.2 current by approximately 90%.
Electrophysiological Procedures: Cells were superfused with vehicle control solution. Micropipette solution for whole cell patch clamp recordings was composed of (mM): Cs-methanesulfonate (MES), 130; TEA-Cl, 20, MgCl2, 1; EGTA, 10; Mg-ATP, 4; Tris-GTP, 0.3, phosphocreatine di-(Tris) salt, 14, creatine phosphokinase, 50 U/mL, and HEPES, 10; pH adjusted to 7.2 with N-methyl-D-glucamine or CsOH. Micropipette solution was prepared in batches, aliquoted, stored frozen, and a fresh aliquot thawed each day. […] Before digitization, current records were low-pass filtered at one-fifth of the sampling frequency.
Experimental Procedures: Onset and steady inhibition was evaluated at a test potential of 0 mV (150 ms duration), repeated at ten-second intervals from a holding potential of −40 mV. Peak current was measured during the step to 0 mV. Peak current was monitored until a new steady state was achieved. hCav1.2 current was monitored until a new steady state was achieved and a steady state was maintained for at least 20 s before applying test article or positive control article formulations. […]
(§1) Nonlinear least squares fits were solved with the Solver add-in for Excel 2003 or later (Microsoft, Redmond, WA) and the IC50 was calculated.
Background: The patch-clamp technique gives a direct electrical read-out from membranes.

Data set [5] deals with late hNav1.5 channel current (Homo sapiens, UniProt Q14524). The data set can be described thus: NaV1.5 (for pimavanserin): late hNav1.5 current, HEK-293, ATX-II activated (CR-CLE). The format is cell-based. The conditions noted are these: HEK293; 100 μM; positive control, previous results; read-out: inhibition of INa,L. How it is done: as §1
late hNav1.5 channel current, sequence (Q14524 whole entry): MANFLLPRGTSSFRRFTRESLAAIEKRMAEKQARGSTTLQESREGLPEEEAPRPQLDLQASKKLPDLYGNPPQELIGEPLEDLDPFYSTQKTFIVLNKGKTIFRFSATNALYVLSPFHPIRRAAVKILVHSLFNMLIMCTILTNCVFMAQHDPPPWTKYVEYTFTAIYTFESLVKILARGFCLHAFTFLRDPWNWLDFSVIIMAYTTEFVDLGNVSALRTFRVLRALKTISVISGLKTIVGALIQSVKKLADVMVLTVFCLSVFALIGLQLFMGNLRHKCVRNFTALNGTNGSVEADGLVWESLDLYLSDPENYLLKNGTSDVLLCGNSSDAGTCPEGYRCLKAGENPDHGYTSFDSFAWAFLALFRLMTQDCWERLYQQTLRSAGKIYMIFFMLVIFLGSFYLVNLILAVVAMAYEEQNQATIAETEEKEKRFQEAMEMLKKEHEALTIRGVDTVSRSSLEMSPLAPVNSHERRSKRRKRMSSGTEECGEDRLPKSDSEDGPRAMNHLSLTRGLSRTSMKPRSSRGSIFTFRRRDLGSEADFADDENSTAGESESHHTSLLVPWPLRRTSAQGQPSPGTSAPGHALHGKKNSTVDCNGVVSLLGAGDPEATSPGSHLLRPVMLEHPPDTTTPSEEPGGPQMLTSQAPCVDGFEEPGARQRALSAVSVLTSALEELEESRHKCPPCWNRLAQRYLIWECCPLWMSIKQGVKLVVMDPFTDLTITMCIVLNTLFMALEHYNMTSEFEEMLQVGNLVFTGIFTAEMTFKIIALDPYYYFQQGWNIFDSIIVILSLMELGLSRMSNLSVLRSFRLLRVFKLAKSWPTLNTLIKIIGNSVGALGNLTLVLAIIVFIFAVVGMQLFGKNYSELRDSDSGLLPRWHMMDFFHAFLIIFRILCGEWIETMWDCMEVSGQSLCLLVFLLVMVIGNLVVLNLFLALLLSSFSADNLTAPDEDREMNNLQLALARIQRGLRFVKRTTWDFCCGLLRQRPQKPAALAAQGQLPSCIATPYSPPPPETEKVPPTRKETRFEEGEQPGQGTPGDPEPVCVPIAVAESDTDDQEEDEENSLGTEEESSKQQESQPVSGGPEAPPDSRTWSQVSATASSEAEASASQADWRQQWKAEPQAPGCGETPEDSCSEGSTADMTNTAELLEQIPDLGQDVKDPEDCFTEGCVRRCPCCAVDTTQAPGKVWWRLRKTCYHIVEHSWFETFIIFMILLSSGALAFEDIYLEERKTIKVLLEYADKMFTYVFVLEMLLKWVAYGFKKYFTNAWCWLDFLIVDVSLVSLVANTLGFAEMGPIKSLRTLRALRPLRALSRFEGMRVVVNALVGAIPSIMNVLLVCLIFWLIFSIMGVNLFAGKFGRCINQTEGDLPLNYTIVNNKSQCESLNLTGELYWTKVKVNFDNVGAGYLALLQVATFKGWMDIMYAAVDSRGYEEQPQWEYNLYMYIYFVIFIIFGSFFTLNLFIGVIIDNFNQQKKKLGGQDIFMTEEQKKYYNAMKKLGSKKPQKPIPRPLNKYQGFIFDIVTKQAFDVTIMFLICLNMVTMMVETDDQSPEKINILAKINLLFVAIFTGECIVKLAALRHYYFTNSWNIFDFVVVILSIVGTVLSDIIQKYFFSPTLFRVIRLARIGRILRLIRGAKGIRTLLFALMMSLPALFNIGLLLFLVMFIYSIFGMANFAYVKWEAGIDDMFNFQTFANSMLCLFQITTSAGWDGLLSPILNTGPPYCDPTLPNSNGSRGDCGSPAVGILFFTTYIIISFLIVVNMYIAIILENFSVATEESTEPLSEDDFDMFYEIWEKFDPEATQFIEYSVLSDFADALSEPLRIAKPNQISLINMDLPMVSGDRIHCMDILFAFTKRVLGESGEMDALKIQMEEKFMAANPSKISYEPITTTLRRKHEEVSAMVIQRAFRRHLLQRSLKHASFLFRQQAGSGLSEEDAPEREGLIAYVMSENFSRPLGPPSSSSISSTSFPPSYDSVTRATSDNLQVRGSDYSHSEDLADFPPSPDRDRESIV
0.1 μM ATX-II was omitted from the vehicle control solution used during initial gigaohm seal formation, transition to whole-cell patch clamp configuration and preliminary baseline recording before activation of late Nav1.5 current with 0.1 μM ATX-II. […] Positive Control Article: • Name: Ranolazine dihydrochloride • Source: Tocris • Batch Number: 2A/215231 • Molecular Weight: 509.47 g/mol • Purity: 98.7% • Storage Conditions: Room temperature • Rationale for Selection: Previous results have shown that 100 μM ranolazine dihydrochloride inhibits INa,L by approximately 85% End Blocker • Name: Lidocaine • Source: Sigma-Aldrich • Lot Number: MKBX2132V • Molecular Weight (g/mol): 234.34 • Storage Conditions: Room temperature • Rationale for Selection: Lidocaine is an inhibitor of peak hNav1.5 and late hNav1.5 currents. Each recording will end with application of 2 mM lidocaine to determine the amplitude of endogenous currents. […]
Electrophysiological Procedures: Cells were superfused with vehicle control solution without ATX-II (HB-PS+0.3% DMSO) until after whole-cell configuration was achieved and a stable baseline current was recorded. […]

5HT2A, sequence (P28223 whole entry): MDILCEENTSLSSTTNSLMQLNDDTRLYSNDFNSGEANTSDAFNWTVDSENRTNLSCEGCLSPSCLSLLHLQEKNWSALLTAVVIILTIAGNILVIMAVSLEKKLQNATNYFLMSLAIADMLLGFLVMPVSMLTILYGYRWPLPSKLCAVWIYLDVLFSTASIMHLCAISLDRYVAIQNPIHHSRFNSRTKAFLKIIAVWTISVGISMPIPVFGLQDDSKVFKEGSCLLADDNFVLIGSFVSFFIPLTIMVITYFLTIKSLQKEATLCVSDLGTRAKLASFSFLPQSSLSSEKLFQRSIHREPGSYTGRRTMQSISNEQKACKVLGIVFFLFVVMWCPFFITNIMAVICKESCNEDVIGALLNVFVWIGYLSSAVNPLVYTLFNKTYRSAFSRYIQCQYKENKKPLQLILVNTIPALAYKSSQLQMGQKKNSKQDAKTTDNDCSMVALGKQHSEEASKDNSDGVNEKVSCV
T1 sequence (Q12809 whole entry): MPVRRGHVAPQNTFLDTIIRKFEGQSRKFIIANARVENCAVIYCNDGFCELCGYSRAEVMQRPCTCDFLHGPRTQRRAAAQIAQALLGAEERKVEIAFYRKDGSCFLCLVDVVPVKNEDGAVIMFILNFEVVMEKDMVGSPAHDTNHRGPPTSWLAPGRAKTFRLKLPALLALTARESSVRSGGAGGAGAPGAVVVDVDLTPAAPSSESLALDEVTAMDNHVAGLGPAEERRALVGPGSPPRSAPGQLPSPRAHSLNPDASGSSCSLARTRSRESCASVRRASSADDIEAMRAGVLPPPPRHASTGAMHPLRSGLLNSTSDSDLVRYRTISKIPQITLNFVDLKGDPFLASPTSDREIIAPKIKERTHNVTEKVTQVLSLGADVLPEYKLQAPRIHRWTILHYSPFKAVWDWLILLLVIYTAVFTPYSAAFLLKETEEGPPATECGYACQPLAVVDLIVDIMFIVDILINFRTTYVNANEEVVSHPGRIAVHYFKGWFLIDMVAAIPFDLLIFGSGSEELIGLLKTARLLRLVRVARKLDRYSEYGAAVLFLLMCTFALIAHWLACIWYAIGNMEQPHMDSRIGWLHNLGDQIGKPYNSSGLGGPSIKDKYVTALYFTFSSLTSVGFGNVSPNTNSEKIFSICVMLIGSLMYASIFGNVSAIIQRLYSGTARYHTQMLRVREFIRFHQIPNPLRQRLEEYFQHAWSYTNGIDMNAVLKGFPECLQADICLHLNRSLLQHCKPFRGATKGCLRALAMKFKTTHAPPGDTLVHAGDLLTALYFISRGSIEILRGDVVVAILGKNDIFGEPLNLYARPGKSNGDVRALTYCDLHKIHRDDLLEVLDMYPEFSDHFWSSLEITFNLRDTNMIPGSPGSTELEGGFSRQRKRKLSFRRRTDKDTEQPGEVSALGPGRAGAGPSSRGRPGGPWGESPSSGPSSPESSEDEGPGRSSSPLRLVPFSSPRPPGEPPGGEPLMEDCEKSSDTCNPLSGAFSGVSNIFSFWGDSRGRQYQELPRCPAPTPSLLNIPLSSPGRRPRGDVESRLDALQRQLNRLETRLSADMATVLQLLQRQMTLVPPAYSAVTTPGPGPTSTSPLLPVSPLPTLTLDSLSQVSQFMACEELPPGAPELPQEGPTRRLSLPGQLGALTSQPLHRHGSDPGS
hERG potassium channel, sequence (Q12809 whole entry): as above

For orientation: inhibition means the relative decrease from the control value, in per cent. In turn, `COc1cc(N)c(Cl)cc1C(=O)NC1CCN(CCCOc2ccc(F)cc2)CC1OC` (stereo not shown) [cisapride, reference compound] registered an inhibition at 0.09 µM in data set [1] of approximately 80%. Compound `CN1CCC(N(Cc2ccc(F)cc2F)C(=O)NCc2ccc3c(c2)CCS3(=O)=O)CC1` [Example 37] yielded an inhibition at 1 µM in data set [2] of 8%. In addition, the IC50 in data set [3] is 631 nM.

In the case of `CN1CCC(N(Cc2ccc(F)cc2F)C(=O)NCc2ccc3c(c2)CCN3C)CC1` [Example 23], in data set [2], 1 µM produced 13% inhibition. Also, in data set [3], the IC50 was 15.8 nM. Consider `CC(C)Oc1ccc(CNC(=O)N(Cc2ccc(C#N)cc2F)C2CCN(C)CC2)cc1` [Example 43], for which 1 µM produced 42% inhibition in data set [2]. Besides, the IC50 in data set [3] is 126 nM. Turning to `CC(C)Oc1ccc(CNC(=O)N(Cc2ccc([N+](=O)[O-])cc2F)C2CCN(C)CC2)cc1` [Example 44], in data set [2], the inhibition at 1 µM was 70%. For the same compound, the IC50 in data set [3] was 158 nM. For `CN1CCC(N(Cc2ccc(F)cc2F)C(=O)NCc2ccc3c(c2)CCC3)CC1` [Example 38], the IC50 in data set [3] was 3.98 nM. On to `COC(=O)C1=C(C)NC(C)=C(C(=O)OC)C1c1ccccc1[N+](=O)[O-]` [nifedipine, reference compound], for which the inhibition at 0.1 µM in data set [4] was approximately 90%. On to `O=C(O)C(F)(F)F.[2H]C([2H])([2H])C(N1CCC(N(Cc2ccc(F)cc2F)C(=O)NCc2ccc(OC(C)C)cc2)CC1)C([2H])([2H])[2H]` [Example 75, 1-[(2,4-difluorophenyl)methyl]-1-{1-[(1,1,1,3,3,3-^2H6)propan-2-yl]piperidin-4-yl}-3-{[4-(propan-2-yloxy)phenyl]methyl}urea; Trifluoroacetic Acid], for which, in data set [3], the IC50 was 3.98 nM. Turning to `COc1ccccc1OCC(O)CN1CCN(CC(=O)Nc2c(C)cccc2C)CC1` (stereo not shown) [ranolazine dihydrochloride, Ranolazine dihydrochloride], the inhibition at 100 µM in data set [5] was approximately 85%. Turning to `Cc1c[nH]c2ccc(CNC(=O)N(Cc3ccc(F)cc3F)C3CCN(C)CC3)cc12` [Example 21], the IC50 in data set [3] is 200 nM. Same read-out and setting: under `CN1CCC(N(Cc2ccc(F)cc2F)C(=O)NCc2ccc3ncccc3c2)CC1` [Example 27] stands 79.4 nM. As to `CN1CCC(N(Cc2ccc(F)cc2F)C(=O)NCc2ccc3ncsc3c2)CC1` [Example 39], at 1 µM the inhibition in data set [2] was 21%. For the same compound, the IC50 in data set [3] was 15.8 nM.

In the case of `CN1CCC(N(Cc2ccc(F)cc2F)C(=O)NCc2ccc3cnn(C)c3c2)CC1` [Example 35], in data set [3], the IC50 is 200 nM. In data set [2], `Cc1cc2cc(CNC(=O)N(Cc3ccc(F)cc3F)C3CCN(C)CC3)ccc2[nH]1` [Example 36] returned an inhibition at 1 µM of 29%. In addition, the IC50 in data set [3] was 25.1 nM. As to `Cc1cc2cc(CNC(=O)N(Cc3ccc(F)cc3F)C3CCN(C)CC3)ccc2n1C` [Example 25], the IC50 in data set [3] was 100 nM.

Turning to `Cc1n[nH]c2ccc(CNC(=O)N(Cc3ccc(F)cc3F)C3CCN(C)CC3)cc12` [Example 42], the IC50 in data set [3] was 251 nM.

On to `Cc1noc2cc(CNC(=O)N(Cc3ccc(F)cc3F)C3CCN(C)CC3)ccc12` [Example 24], for which testing at 1 µM in data set [2] gave an inhibition of 10%. For the same compound, the IC50 in data set [3] was 126 nM. Consider `CN1CCC(N(Cc2ccc(F)cc2F)C(=O)NCc2ccc3c(c2)OC(C)(C)C=C3)CC1` [Example 34], for which the IC50 in data set [3] was 316 nM.
